In US10286000B2, “Retinoid X receptor-gamma agonists and retinoid X receptor-alpha antagonists for treatment of cancer” (St. Jude Children's Research Hospital, Inc., priority 2013, dated 2019):

Columns and labels:
[1] = test system: HCT116, HT29, and CAL27 cells; test: in vitro cell invasion assay (ECM-coated Transwell); format: cell-based, human; conditions: HCT116, HT29, CAL27
Procedure: (§1) The number of cells that invaded the ECM was determined after 24 h. Data are expressed as percentage change in tumor invasion relative to that of DMSO-treated cells (n=3). (D) Wound healing by DMSO- and SPIR-treated HCT116, HT29, and CAL27 cells was compared. Data are calculated as the percentage change in distance of migration relative to that of DMSO-treated cells (n=3). […] Tumor xenografts and lung metastases were detected by bioluminescence imaging on day 25. Data are shown as the average total flux (photons/second)±standard deviation (n=8). (F) The lung metastases (arrows) were confirmed by examining lung tissue sections. * P≤0.05, ** P<0.01, *** P<0.005, **** P<0.0001.
The invasiveness of the tumor cells was determined by using the CytoSelect 96-well Cell Invasion Assay with Basement Membrane (Cell Biolabs) according to the manufacturer instructions.

[2] = test system: RXR-gamma; test: RXR-gamma reporter assay; format: cell-based, human; conditions: HCT116 cells
Procedure: The Cignal RXR reporter assay system containing an RXR-gamma-responsive luciferase construct, which encodes the firefly luciferase reporter gene under the control of a minimal CMV promoter and tandem repeats of the RXR-gamma transcriptional response element, was purchased from Qiagen. The experiment was performed in HCT116 cells according to the manufacturer's instructions.

[3] = test system: HCT116, HT29, and CAL27 cells; test: wound-healing assay; format: cell-based, human; conditions: HCT116, HT29, CAL27
Procedure: as §1
Confluent cell layers of CAL27 and HT29 cells with a 500 μm±50 μm gap were formed by using Ibidi culture inserts (RPI Corp.). Gap distances were measured at various times using a Nikon Eclipse Ti inverted microscope and NIS-Elements software (Nikon).

[4] = test system: spontaneous intestinal polyps; test: C57BL/6J-ApcMin/J mouse model; format: in vivo, C57BL/6J-Apc^Min/J mice
Procedure: The number of spontaneous intestinal polyps (arrows) was counted and compared between the two groups of mice at the end of the 3 month period. (B) The difference in adenoma growth (arrows) between the PBS- and SPIR-treated mouse groups was confirmed in intestine tissue sections. […] Total RNA were collected for cDNA preparation and the expressions of the mouse NKG2D ligands Raet1 family were analyzed by qRT-PCR. […] The number of spontaneous intestinal polyps (arrows) was counted and compared between the two groups of mice. * P≤0.05, ** P≤0.01, *** P<0.005.
By examining the intestines collected from different age groups of C57BL/6J-APC^Min/J mice (n=2-3 per group), it was discovered that none of the 8-week-old mice developed intestinal polyps. The mice started to develop polyps when they were 10 to 12-week-old and there were 15-25 intestinal adenomas established in the intestinal tracts of all the 4-month-old mice. Most of the mice died at 5 to 6 months with 25-30 adenomas in their intestines. […] The number of intestinal polyps was counted, and the intestine was fixed in 10% neutral buffered formalin, paraffin embedded, sectioned, and stained with hematoxylin and eosin. Intestine sections at 100-μm intervals were collected for the observation of neoplasia without knowledge of treatment assignment.

[5] = test system: HDAC; test: HDAC activity and HDAC3 mRNA after SPIR treatment; format: cell-based, human
[6] = test system: HCT116 cells; test: cell-cycle analysis (propidium iodide, EdU); format: cell-based, human; conditions: HCT116, 24 h
[7] = test system: colon cancer cell lines (NKL or primary NK cells as effectors); test: NK cell cytotoxicity assay (BATDA release); format: cell-based, human
Procedure: (A) NKL cells express high level of NKG2D but not NKp30 on their cell surface as determined by flow cytometry. Results are representative of two independent experiments. Therefore, the use of anti-NKp30 in NKL killing assay described in 2 F below was considered as a non-specific IgG blockade relative to anti-NKG2D. […] (D) HCT116 cells transduced with control or a ULBP2-overexpressing lentiviral construct were analyzed by flow cytometry for the surface expression of ULBP2. Results are representative of two independent experiments. (E) NK cell cytotoxicity on the ULBP2-transduced HCT116 cells was determined by a BATDA release assay using NKL cells as effector cells (n=3). (F) DMSO- or SPIR-treated (3 days) HCT116 cells were subjected to a BATDA release assay using NKL cells in the presence or absence of anti-NKp30 or anti-NKG2D antibodies (10 μg/mL) (n=3). (G) DMSO- or SPIR-treated (3 days) HCT116 cells were subjected to a BATDA release assay using IL-2 (10 U/ml)-primed primary NK cells isolated from healthy donors at various E:T ratios in the presence or absence of anti-NKp30 or anti-NKG2D antibodies (10 μg/mL) (n=3). * P<0.05, ** P<0.005, *** P<0.0001.
The results were calculated as follows: […]

[8] = test system: normal human lymphocytes; test: normal human lymphocytes: viability and NKG2DL expression; format: cell-based
[9] = test system: NKG2DL mRNA in colon cancer cell lines; test: qRT-PCR of NKG2DL mRNA; format: cell-based, human; conditions: relative to DMSO
Procedure: For qRT-PCR, total RNA was extracted from untreated or drug-treated tumor cells by using the RNA Clean & Concentrator (Zymo Research). All cDNA was generated by using the SuperScript VILO cDNA Synthesis kit (Life Technologies) and diluted 10-fold for analysis using the 7900HT Fast Real-time PCR System (Applied Biosystems). The data were calculated as the CT of target genes normalized to the CT of GAPDH of each sample. […] Differentially expressed transcripts were analyzed by ANOVA on Spotfire program.

CC(=O)S[C@@H]1CC2=CC(=O)CC[C@]2(C)[C@H]2CC[C@@]3(C)[C@@H](CC[C@@]34CCC(=O)O4)[C@H]12 [SPIR, spironolactone]
invasion through ECM-coated membranes [1]: significantly suppressed invasion | RXR-gamma-responsive luciferase activity ([2]; 24 h): significantly increased | RXR-gamma protein level ([2]; Western blot): did not change | cell migration [3]: delayed cell migration | number of polyps (therapy) ([4]; 4-month-old mice, twice a week for 3 weeks, vs untreated): significant reduction of the number of polyps | number of polyps formed (prevention) ([4]; 8-week-old mice, twice a week for 3 months, vs untreated): significantly less | expression of Raet1 ligand in the polyps ([4]; qRT-PCR): significantly increased the expression of the Raet1 ligand | HDAC activities ([5]; SW480 or HCT116 cells): did not inhibit HDAC activities | mRNA expression of HDAC3 ([5]; after SPIR treatment): no significant change | cell cycle [6]: S-phase cell-cycle arrest | susceptibility to primary NK cell-mediated lysis ([7]; HT29 and SW480 cells, IL-2-primed primary NK cells): markedly enhanced | susceptibility to NKL lysis ([7]; all colon cancer cell lines, SPIR 56 μM): significantly increased | viability or NKG2DL expression of normal human lymphocytes [8]: no detrimental effect | NKG2DL mRNA levels [9]: increase in mRNA levels
